# Literature values in PubChem BioAssay AID1259409 (Chemical Carcinogenesis Research Information System (CCRIS), 2018).
# Test system: rodent chemically induced tumor inhibition, incidence and multiplicity
# Assay: CCRIS tumor inhibitor studies
# Settings: Species: RAT, Strain/Sex: F344/MALE
smiles,measurement,setting,value
O=P(O)(O)OC1C(OP(=O)(O)O)C(OP(=O)(O)O)C(OP(=O)(O)O)C(OP(=O)(O)O)C1OP(=O)(O)O (stereo not given),"tumour outcome (control, treated, inhibition, significance)","Carcinogen: 2,2'-DIHYDROXY-DI-N-PROPYLNITROSAMINE [621-64-7], N-ETHYL-N-HYDROXYETHYLNITROSAMINE [13147-25-6], 3,2'-DIMETHYL-4-AMINOB, Carcinogen: 2,2'-DIHYDROXY-DI-N-PROPYLNITROSAMINE [621-64-7], N-ETHYL-N-HYDROXYETHYLNITROSAMINE [13147-25-6], 3,2'-DIMETHYL-4-AMINOB, Dose [Inhibitor]: 2% IN DIET FOR 32 WK BEGINNING 1 WK POST LAST CARCINOGEN DOSE (STUDY DURATION: 32 WK), Route [Inhibitor]: ORAL, Target Tissue: Type of Lesion: LIVER: ADENOMA, Dose [Carcinogen]: 1000 MG/KG BW DHPN IP 2X/3 WK, 1500 MG/KG BW EHEN IP 2X/3 WK, 75 MG/KG BW DMAB SC 3X/3 WK;, Dose [Carcinogen]: 1000 MG/KG BW DHPN IP 2X/3 WK, 1500 MG/KG BW EHEN IP 2X/3 WK, 75 MG/KG BW DMAB SC 3X/3 WK;, Promoter: NONE","9/14 (64%), 5/12 (42%), 34%, p<0.01"
same,"tumour outcome (control, treated, inhibition, significance)","Carcinogen: 2,2'-DIHYDROXY-DI-N-PROPYLNITROSAMINE [621-64-7], N-ETHYL-N-HYDROXYETHYLNITROSAMINE [13147-25-6], 3,2'-DIMETHYL-4-AMINOB, Carcinogen: 2,2'-DIHYDROXY-DI-N-PROPYLNITROSAMINE [621-64-7], N-ETHYL-N-HYDROXYETHYLNITROSAMINE [13147-25-6], 3,2'-DIMETHYL-4-AMINOB, Dose [Inhibitor]: 2% IN DIET FOR 32 WK BEGINNING 1 WK POST LAST CARCINOGEN DOSE (STUDY DURATION: 32 WK), Route [Inhibitor]: ORAL, Target Tissue: Type of Lesion: LIVER: CARCINOMA, Dose [Carcinogen]: 1000 MG/KG BW DHPN IP 2X/3 WK, 1500 MG/KG BW EHEN IP 2X/3 WK, 75 MG/KG BW DMAB SC 3X/3 WK;, Dose [Carcinogen]: 1000 MG/KG BW DHPN IP 2X/3 WK, 1500 MG/KG BW EHEN IP 2X/3 WK, 75 MG/KG BW DMAB SC 3X/3 WK;, Promoter: NONE","6/14 (43%), 1/12 (8%), 81%, not significant"
same,"tumour outcome (control, treated, inhibition, significance)","Carcinogen: 2,2'-DIHYDROXY-DI-N-PROPYLNITROSAMINE [621-64-7], N-ETHYL-N-HYDROXYETHYLNITROSAMINE [13147-25-6], 3,2'-DIMETHYL-4-AMINOB, Carcinogen: 2,2'-DIHYDROXY-DI-N-PROPYLNITROSAMINE [621-64-7], N-ETHYL-N-HYDROXYETHYLNITROSAMINE [13147-25-6], 3,2'-DIMETHYL-4-AMINOB, Dose [Inhibitor]: 2% IN DIET FOR 32 WK BEGINNING 1 WK POST LAST CARCINOGEN DOSE (STUDY DURATION: 32 WK), Route [Inhibitor]: ORAL, Target Tissue: Type of Lesion: LUNG: ADENOMA, Dose [Carcinogen]: 1000 MG/KG BW DHPN IP 2X/3 WK, 1500 MG/KG BW EHEN IP 2X/3 WK, 75 MG/KG BW DMAB SC 3X/3 WK;, Dose [Carcinogen]: 1000 MG/KG BW DHPN IP 2X/3 WK, 1500 MG/KG BW EHEN IP 2X/3 WK, 75 MG/KG BW DMAB SC 3X/3 WK;, Promoter: NONE","7/14 (50%), 9/12 (75%), -50%, not significant"
same,"tumour outcome (control, treated, inhibition, significance)","Carcinogen: 2,2'-DIHYDROXY-DI-N-PROPYLNITROSAMINE [621-64-7], N-ETHYL-N-HYDROXYETHYLNITROSAMINE [13147-25-6], 3,2'-DIMETHYL-4-AMINOB, Carcinogen: 2,2'-DIHYDROXY-DI-N-PROPYLNITROSAMINE [621-64-7], N-ETHYL-N-HYDROXYETHYLNITROSAMINE [13147-25-6], 3,2'-DIMETHYL-4-AMINOB, Dose [Inhibitor]: 2% IN DIET FOR 32 WK BEGINNING 1 WK POST LAST CARCINOGEN DOSE (STUDY DURATION: 32 WK), Route [Inhibitor]: ORAL, Target Tissue: Type of Lesion: URINARY BLADDER: CARCINOMA, Dose [Carcinogen]: 1000 MG/KG BW DHPN IP 2X/3 WK, 1500 MG/KG BW EHEN IP 2X/3 WK, 75 MG/KG BW DMAB SC 3X/3 WK;, Dose [Carcinogen]: 1000 MG/KG BW DHPN IP 2X/3 WK, 1500 MG/KG BW EHEN IP 2X/3 WK, 75 MG/KG BW DMAB SC 3X/3 WK;, Promoter: NONE","1/14 (7%), 4/12 (33%), -371%, not significant"
same,outcome,"Carcinogen: 2,2'-DIHYDROXY-DI-N-PROPYLNITROSAMINE [621-64-7], N-ETHYL-N-HYDROXYETHYLNITROSAMINE [13147-25-6], 3,2'-DIMETHYL-4-AMINOB, Carcinogen: 2,2'-DIHYDROXY-DI-N-PROPYLNITROSAMINE [621-64-7], N-ETHYL-N-HYDROXYETHYLNITROSAMINE [13147-25-6], 3,2'-DIMETHYL-4-AMINOB, Dose [Inhibitor]: 2% IN DIET FOR 32 WK BEGINNING 1 WK POST LAST CARCINOGEN DOSE (STUDY DURATION: 32 WK), Route [Inhibitor]: ORAL, Target Tissue: Type of Lesion: URINARY BLADDER: PAPILLOMA, Dose [Carcinogen]: 1000 MG/KG BW DHPN IP 2X/3 WK, 1500 MG/KG BW EHEN IP 2X/3 WK, 75 MG/KG BW DMAB SC 3X/3 WK;, Dose [Carcinogen]: 1000 MG/KG BW DHPN IP 2X/3 WK, 1500 MG/KG BW EHEN IP 2X/3 WK, 75 MG/KG BW DMAB SC 3X/3 WK;, Promoter: NONE","0/14 (0%), 6/12 (50%), -100%, p<0.01"
same,"tumour outcome (control, treated, inhibition, significance)","Carcinogen: 2,2'-DIHYDROXY-DI-N-PROPYLNITROSAMINE, 53609-64-6, N-ETHYL-N-HYDROXYETHYL- NITROSAMINE, 13147-25-6, 3,2'-DIMETHYL-4-, Carcinogen: 2,2'-DIHYDROXY-DI-N-PROPYLNITROSAMINE, 53609-64-6, N-ETHYL-N-HYDROXYETHYL- NITROSAMINE, 13147-25-6, 3,2'-DIMETHYL-4-, Dose [Inhibitor]: 0, 2% IN DIET BEGINNING 1 WK POST LAST CARCINOGEN DOSE AND CONTINUING FOR 32 WK (STUDY DURATION: 36 WK), Route [Inhibitor]: 0RAL, Target Tissue: Type of Lesion: URINARY BLADDER: CARCINOMA, Dose [Carcinogen]: 1000 MG/KG IP DHPN 2X, 1500 MG/KG GAV EHEN 2X AND 75 MG/KG SC DMAB 3X GIVEN OVER THE INITIAL 3 WK PERIOD AT 3-4 D INTERV, Promoter: NONE USED","1/14 (7%), 2/12 (17%), -143%, not calculated"
same,"tumour outcome (control, treated, inhibition, significance)","Carcinogen: 2,2'-DIHYDROXY-DI-N-PROPYLNITROSAMINE, 53609-64-6, N-ETHYL-N-HYDROXYETHYL- NITROSAMINE, 13147-25-6, 3,2'-DIMETHYL-4-, Carcinogen: 2,2'-DIHYDROXY-DI-N-PROPYLNITROSAMINE, 53609-64-6, N-ETHYL-N-HYDROXYETHYL- NITROSAMINE, 13147-25-6, 3,2'-DIMETHYL-4-, Dose [Inhibitor]: 0, 2% IN DIET BEGINNING 1 WK POST LAST CARCINOGEN DOSE AND CONTINUING FOR 32 WK (STUDY DURATION: 36 WK), Route [Inhibitor]: ORAL, Target Tissue: Type of Lesion: LARGE INTESTINE: ADENOMA, Dose [Carcinogen]: 1000 MG/KG/ IP DHPN 2X, 1500 MG/KG GAV EHEN 2X AND 75 MG/KG SC DMAB 3X GIVEN OVER THE INITIAL 3 WK AT 3-4 D INTERVALS, Promoter: NONE USED","7/14 (50%), 5/12 (42%), 16%, not calculated"
same,"tumour outcome (control, treated, inhibition, significance)","Carcinogen: 2,2'-DIHYDROXY-DI-N-PROPYLNITROSAMINE, 53609-64-6, N-ETHYL-N-HYDROXYETHYL- NITROSAMINE, 13147-25-6, 3,2'-DIMETHYL-4-, Carcinogen: 2,2'-DIHYDROXY-DI-N-PROPYLNITROSAMINE, 53609-64-6, N-ETHYL-N-HYDROXYETHYL- NITROSAMINE, 13147-25-6, 3,2'-DIMETHYL-4-, Dose [Inhibitor]: 0, 2% IN DIET BEGINNING 1 WK POST LAST CARCINOGEN DOSE AND CONTINUING FOR 32 WK (STUDY DURATION: 36 WK), Route [Inhibitor]: ORAL, Target Tissue: Type of Lesion: LARGE INTESTINE: CARCINOMA, Dose [Carcinogen]: 1000 MG/KG IP DHPN 2X, 1500 MG/KG GAV EHEN 2X AND 75 MG/KG SC DMAB 3X GIVEN OVER THE INITIAL 3 WK PERIOD AT 3-4 D INTERV, Promoter: NONE USED","3/14 (21%), 4/12 (33%), -57%, not calculated"
same,"tumour outcome (control, treated, inhibition, significance)","Carcinogen: 2,2'-DIHYDROXY-DI-N-PROPYLNITROSAMINE, 53609-64-6, N-ETHYL-N-HYDROXYETHYL- NITROSAMINE, 13147-25-6, 3,2'-DIMETHYL-4-, Carcinogen: 2,2'-DIHYDROXY-DI-N-PROPYLNITROSAMINE, 53609-64-6, N-ETHYL-N-HYDROXYETHYL- NITROSAMINE, 13147-25-6, 3,2'-DIMETHYL-4-, Dose [Inhibitor]: 0, 2% IN DIET BEGINNING 1 WK POST LAST CARCINOGEN DOSE AND CONTINUING FOR 32 WK (STUDY DURATION: 36 WK), Route [Inhibitor]: ORAL, Target Tissue: Type of Lesion: LIVER: HEPATOCELLULAR CARCINOMA, Dose [Carcinogen]: 1000 MG/KG IP DHPN 2X, 1500 MG/KG GAV EHEN 2X AND 75 MG/KG SC DMAB 3X GIVEN OVER THE INITIAL 3 WK AT 3-4 D INTERVALS, Promoter: NONE USED","6/14 (43%), 1/12 (8%), 81%, not calculated"
same,"tumour outcome (control, treated, inhibition, significance)","Carcinogen: 2,2'-DIHYDROXY-DI-N-PROPYLNITROSAMINE, 53609-64-6, N-ETHYL-N-HYDROXYETHYL- NITROSAMINE, 13147-25-6, 3,2'-DIMETHYL-4-, Carcinogen: 2,2'-DIHYDROXY-DI-N-PROPYLNITROSAMINE, 53609-64-6, N-ETHYL-N-HYDROXYETHYL- NITROSAMINE, 13147-25-6, 3,2'-DIMETHYL-4-, Dose [Inhibitor]: 0, 2% IN DIET BEGINNING 1 WK POST LAST CARCINOGEN DOSE AND CONTINUING FOR 32 WK (STUDY DURATION: 36 WK), Route [Inhibitor]: ORAL, Target Tissue: Type of Lesion: LUNG: ADENOMA, Dose [Carcinogen]: 1000 MG/KG IP DHPN 2X, 1500 MG/KG GAV EHEN 2X AND 75 MG/KG SC DMAB 3X GIVEN OVER THE INITIAL 3 WK PERIOD AT 3-4 D INTERV, Promoter: NONE USED","7/14 (50%), 9/12 (75%), -50%, not calculated"
